# Legend:
# [1] = assay type: physicochemical
# Method: (§1) 30.13 mg of 3 was added to 1 mL USP-purified water. The sample was rotated for 2 h and then centrifuged for 5 min. After centrifuging, solid was visible in the bottom of the tube. A 125 μL aliquot of the solution was then diluted to 25 mL. The sample was analyzed by UV/Vis spectroscopy at 436 nm, and the absorbance was compared to a standard curve compiled from four standards of known concentration. The concentration of the original supernatant was calculated to be 2.85 mg/mL and the absorptivity was 36.94 AU mL/cm mg. Slight error may have been introduced by the small size of the original aliquot.
# as §1, with “Next, 30.80” for “30.13”, “8” for “3”, “411” for “436”, “29.27” for “2.85”, “2.90” for “36.94”
# [2] = system: superoxide anion generation from phorbol-ester (PMA)-stimulated PMNs; assay: Direct superoxide anion scavenging by EPR spectroscopy (DEPMPO spin-trap) in isolated human neutrophil assay; assay type: cell-based; conditions: 40% EtOH, 0.1 mM; EtOH vehicle background 5%; listed as lutein diphosphate, sodium salt
# Method: Human polymorphonuclear leukocytes (PMNs) were isolated from freshly sampled venous blood of a single volunteer by Percoll density gradient centrifugation as described previously. Briefly, each 10 mL of whole blood was mixed with 0.8 mL of 0.1 M EDTA and 25 mL saline. The diluted blood was then layered over 9 mL Percoll at a specific density of 1.080 g/mL. After centrifugation at 400 g for 20 min at 20° C., the plasma, mononuclear cell, and Percoll layers were removed. Erythrocytes were subsequently lysed by addition of 18 mL ice-cold water for 30 s, followed by 2 mL of 10× PIPES buffer (25 mM PIPES, 110 mM NaCl, and 5 mM KCl, titrated to pH 7.4 with NaOH). […] Afterward, PMNs were counted by light microscopy on a hemocytometer. […]
# All EPR measurements were performed using a Bruker ER 300 EPR spectrometer operating at X-band with a TM110 cavity as previously described. The microwave frequency was measured with a Model 575 microwave counter (EIP Microwave, Inc., San Jose, Calif.). […]
# Instrument settings used in the spin-trapping experiments were as follows: modulation amplitude, 0.32 G; time constant, 0.16 s; scan time, 60 s; modulation frequency, 100 kHz; microwave power, 20 mW; and microwave frequency, 9.76 GHz. The samples were placed in a quartz EPR .at cell, and spectra were recorded. The component signals in the spectra were identified and quantified as reported previously.
substance,measurement,setting,value
"3,3′-Diphosphoryloxy-β,ε-carotene sodium salt [Compound 8]",Increase in aqueous dispersibility versus the disuccinate sodium salt,[1],> 10 fold
same,Mean (% inhibition) of superoxide anion signal,[2],(mean % inhibition = 18%) was increased above background scavenging (5%)
